Columns and labels:
[1] = tested on: Aortic smooth muscle cells; experiment: Dose response of aortic smooth muscle cells to TGF-β on RGDS-coupled aminophase glass; type: cell-based
Description: Aortic smooth muscle cells were grown on aminophase glass that had 0.5 nmol/cm^2 RGDS (SEQ ID NO:1) covalently coupled to the glass. TGF-β was added to the media at 0, 1, or 5 ng/ml (0, 4×10^−5, 2×10^−4 nmol/ml). ECM protein production by the cells over a 2-day time period was determined by examining the amount of ^3H-glycine incorporated into the ECM elaborated by the cells.

[2] = tested on: SMCs; experiment: DNA and hydroxyproline determination in RGDS-containing PEG hydrogels seeded with SMCs; type: cell-based, Wistar-Kyoto rats; conditions: 0.04 pmol/ml, 7 days of culture
Excerpt: Chemicals were obtained from Sigma Chemical Co. (St. Louis, Mo.) unless otherwise stated. SMCs from the thoracic aorta of Wistar-Kyoto rats were isolated and characterized as previously described by Scott-Burden, et al., Hypertension 13:295-305 (1989). Human aortic smooth muscle cells (HASMCs) were obtained from Clonetics (San Diego, Calif.). Both SMCs and HASMCs were maintained on Minimal Essential Medium Eagle supplemented with 10% fetal bovine serum (FBS; BioWhittaker, Walkersville, Md.), 2 mM L-glutamine, 500 units penicillin and 100 mg/l streptomycin (MEM). Cells were incubated at 37° C. in a 5% CO2 environment. […]
After 7 days of culture, hydrogels were removed from the culture media, weighed, and digested with 1 ml 0.1 N NaOH overnight at 37° C. […] DNA content of the digested, neutralized hydrogels was determined using a fluorescent DNA binding dye, Hoechst 33258 (Molecular Probes, Eugene, Oreg.). Fluorescence of the samples was determined using a fluorometer (VersaFluor, Bio-Rad Laboratories, Hercules, Calif.) with excitation filter at 360 nm and emission filter at 460 nm, and compared to fluorescence of calf thymus DNA standards.
Hydroxyproline concentration was determined by oxidation with chloramine T (ICN Biomedicals, Aurora, Ohio) and development with p-dimethylaminobenzaldehyde (ICN Biomedicals) (Woessner, et al. Arch. Biochem. Biophys. 93:440-447 (1961)). […]

[3] = tested on: SMCs; experiment: Matrix protein production on peptide-modified glass surfaces (3H-glycine incorporation into ECM); type: cell-based, Wistar-Kyoto rats; conditions: for increase in matrix production per cell over that produced when no TGF-β was added: 0.04 pmol/ml (1 ng/ml) soluble TGF-β in the media, 2 days
Excerpt: Chemicals were obtained from Sigma Chemical Co. (St. Louis, Mo.) unless otherwise stated. SMCs from the thoracic aorta of Wistar-Kyoto rats were isolated and characterized as previously described by Scott-Burden, et al., Hypertension 13:295-305 (1989). Human aortic smooth muscle cells (HASMCs) were obtained from Clonetics (San Diego, Calif.). Both SMCs and HASMCs were maintained on Minimal Essential Medium Eagle supplemented with 10% fetal bovine serum (FBS; BioWhittaker, Walkersville, Md.), 2 mM L-glutamine, 500 units penicillin and 100 mg/l streptomycin (MEM). Cells were incubated at 37° C. in a 5% CO2 environment.
Peptides used in this study were RGDS (SEQ ID NO:1), VAPG (SEQ ID NO:2), and KQAGDV (SEQ ID NO:3) (Research Genetics, Huntsville, Ala.). RGES (SEQ ID NO:4) was used as a non-adhesive control peptide. The peptides were acetylated and coupled to aminophase glass slides as previously described by Mann, et al., Biomaterials 20:2281-2286 (1999). Briefly, aminophase slides were prepared by incubating glass slides with 3-aminopropyltriethoxysilane in dry acetone at 37° C. overnight. Acetylated peptides were then coupled to the slides using 1-ethyl-3-(3-dimethylaminopropyl) carbodiimide (EDAC) chemistry. Slides were sterilized under UV light overnight prior to use.
Matrix protein production was evaluated as previously described by Mann (1999). Suspensions of SMCs were prepared in MEM supplemented with 5 μg/ml ascorbic acid at a concentration of 40,000 cells/ml. For samples receiving TGF-β, 0.04 pmol/ml (1 ng/ml) unmodified TGF-β or 0.04 pmol/ml acryloyl-PEG-TGF-β was added to the media. Cell suspensions to be used for measurement of ECM protein production were also supplemented with 1 μCi/ml ^3H-glycine (40 Ci/mmol). The glass slides were attached to FlexiPerm strips in QuadriPerm Cell Culture Vessels (Heraeus, Osterode am Harz, Germany) to create eight wells (1.11×0.79×0.79 cm) on each slide. Four of the wells on each slide were utilized to measure ECM production, while the remaining four wells were utilized for cell number determination and were cultured in the absence of ^3H-glycine. Cell number was determined after 2 days of culture by preparing single cell suspensions using trypsin and counting cells using a Coulter counter (Multisizer #0646, Coulter Electronics, Hialeah, Fla.).
To evaluate synthesis of ECM proteins, the cell growth media was supplemented with ^3H-glycine, as described above. Two days following ^3H-glycine addition, cells were removed non-enzymatically with 25 mM ammonium hydroxide, then rinsed with 70% ethanol and dried. This process leaves intact the ECM elaborated by cells during culture (Jones, et al., Proc. natl. Acad. Sci. USA 76:353-357 (1979)). Sequential enzyme digestion was used as previously described by Mann (1999) to determine the gross composition of the ECM proteins. Briefly, the ECM was digested first with trypsin, followed by elastase, and then collagenase. After the final enzymatic digestion, any material remaining on the substrate was dissolved by incubation with 1 N NaOH. Aliquots were taken from each step of the digest for scintillation counting.

[4] = tested on: Auricular chondrocytes; experiment: Dose response of auricular chondrocytes to TGF-β on tissue culture polystyrene; type: cell-based
Description: Auricular chondrocytes were grown on tissue culture polystyrene with varying amounts of TGF-β added to the media: 0, 1, 5, 10, 25, or 100 ng/ml. ECM protein production by the cells over a 2-day time period was determined by examining the amount of ^3H-glycine incorporated into the ECM elaborated by the cells.

[5] = tested on: Aortic smooth muscle cells; experiment: Matrix production in the presence of ascorbic acid, aortic smooth muscle cells; type: cell-based; conditions: SMCs
Description: (§1) Aortic smooth muscle cells and auricular chondrocytes were grown on tissue culture polystyrene with and without 50 μg/ml ascorbic acid added to the media. ECM protein production by the cells over a 2-day time period was determined by examining the amount of ^3H-glycine incorporated into the ECM elaborated by the cells.

[6] = tested on: Auricular chondrocytes; experiment: Matrix production in the presence of ascorbic acid, auricular chondrocytes; type: cell-based
Description: as §1

[7] = RGDS-modified glass surfaces, 0.04 pmol/ml in the media
[8] = 50 μg/ml ascorbic acid in the media, 2 days
[9] = 50 μg/ml ascorbic acid, over 2 days

Compound	cell numbers (proliferation) ([1]; TGF-β 1 or 5 ng/ml, over 2 days)	ECM protein production per cell (% of control) ([1]; TGF-β in the media at both 1 and 5 ng/ml, 2 days)	optimal concentrations to induce ECM production ([1]; aortic smooth muscle cells)	hydroxyproline (collagen) production compared with no TGF-β [2]	increase in matrix production per cell over that produced when no TGF-β was added ([3]; KQAGDV surfaces)	matrix production compared with the non-adhesive control (RGES) ([3]; RGDS and KQAGDV modified surfaces, 1 ng/ml TGF-β in the media)	increase in matrix production per cell over that produced when no TGF-β was added ([3]; RGDS surfaces)	matrix production compared with absence of TGF-β [3, 7]	increase in matrix production per cell over that produced when no TGF-β was added ([3]; VAPG surfaces)	ECM protein production per cell ([4]; TGF-β in the media at concentrations above 1 ng/ml, 2 days)	cell numbers (proliferation) ([4]; TGF-β up to 100 ng/ml, over 2 days)	optimal concentration for ECM protein production per cell ([4]; auricular chondrocytes, 2 days)	ECM protein production per cell [5, 8]	cell numbers (proliferation) [5, 9]	ECM protein production per cell [6, 8]	cell numbers (proliferation) [6, 9]	matrix production compared with unmodified TGF-β [3, 7]
transforming growth factor-beta [TGF-β]	did not increase	increased	one and five	More hydroxyproline	104%	increased over that seen with the non-adhesive control	224%	greater amounts of matrix	20%	increased	did not increase	25 ng/mL	–	–	–	–	–
O=C1O[C@H]([C@@H](O)CO)C(O)=C1O [ascorbic acid]	–	–	–	–	–	–	–	–	–	–	–	–	increased	did not increase	increased	did not increase	–
acryloyl-PEG-TGF-β [polymer-conjugated TGF-β]	–	–	–	–	–	–	–	greater amounts of matrix	–	–	–	–	–	–	–	–	less matrix was produced
